The NIST ThermoML archive (doi:10.1016/j.tca.2018.11.020)

Legend:
[1] = Adiabatic calorimetry
[2] = Molar enthalpy of transition or fusion; details: Crystal; Adiabatic calorimetry
[3] = molar heat capacity at constant pressure; details: 101.33 kPa, Vacuum adiabatic calorimetry

CC(C)O [propan-2-ol]
[1]
Details	Glass transition temperature [°C]	Triple point temperature [K]
Crystal	–	184.7
Glass	-156.0	–

Details	Molar enthalpy of transition or fusion [kcal/mol]
[2]	1.27

[3]
Details	molar heat capacity at constant pressure [J/K/mol]
85 K, Glass	51.12
90 K, Glass	53.51
95 K, Glass	56.01
100 K, Crystal	54.18
100 K, Glass	58.63
105 K, Crystal	56.19
105 K, Glass	61.36
110 K, Crystal	58.21
110 K, Glass	64.24
115 K, Crystal	60.23
120 K, Crystal	62.27
120 K, Metastable liquid	103.93
125 K, Crystal	64.31
125 K, Metastable liquid	103.76
130 K, Crystal	66.36
130 K, Metastable liquid	103.51
135 K, Crystal	68.41
135 K, Metastable liquid	103.26
140 K, Crystal	70.47
145 K, Crystal	72.55
150 K, Crystal	74.62
155 K, Crystal	76.7
160 K, Crystal	78.79
165 K, Crystal	80.88
